Results: ChEMBL document CHEMBL1201862, “PubChem BioAssay data set” (2004)
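Step 1: Grow cells in 96-well plates. Step 2: Expose to compound for 48 hours at 5 concentrations. Step 3: Interpolate endpoints linearly; if unreached, use highest concentration. At the GI50, growth is halved.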 Activity calls are given as the source filed them. Cut-off read from the data, not from the text of the source: active = GI50 up to about 1.1 µM and inactive = higher.

How the values were obtained:
Assay in all cases: NCI tumour cell line growth inhibition, 48 h
A498 = system: A498
A549 = system: A549
ACHN = system: ACHN
CAKI-1 = system: CAKI-1
COLO 205 = system: COLO 205
EKVX = system: EKVX
HCT-15 = system: HCT-15
K562 = system: K562
KM12 = system: KM12
MDA-N = system: MDA-N
MOLT-4 = system: MOLT-4
OVCAR-3 = system: OVCAR-3
PC-3 = system: PC-3
RPMI-8226 = system: RPMI-8226
SF-295 = system: SF-295
SN12C = system: SN12C
SNB-19 = system: SNB-19
SW-620 = system: SW-620
U-251 = system: U-251
UACC-62 = system: UACC-62
786-0 = system: 786-0
CCRF-CEM = system: CCRF-CEM
DU-145 = system: DU-145
HCC 2998 = system: HCC 2998
HCT-116 = system: HCT-116
HOP-62 = system: HOP-62
HOP-92 = system: HOP-92
HT-29 = system: HT-29
Hs-578T = system: Hs-578T
IGROV-1 = system: IGROV-1
LOX IMVI = system: LOX IMVI
M14 = system: M14
MCF7 = system: MCF7
MDA-MB-231 = system: MDA-MB-231
MDA-MB-435 = system: MDA-MB-435
Malme-3M = system: Malme-3M
NCI-H226 = system: NCI-H226
NCI-H23 = system: NCI-H23
NCI-H460 = system: NCI-H460
NCI-H522 = system: NCI-H522
NCI/ADR-RES = system: NCI/ADR-RES
OVCAR-4 = system: OVCAR-4
OVCAR-5 = system: OVCAR-5
OVCAR-8 = system: OVCAR-8
RXF 393 = system: RXF 393
SF-268 = system: SF-268
SF-539 = system: SF-539
SK-MEL-28 = system: SK-MEL-28
SK-MEL-2 = system: SK-MEL-2
SK-MEL-5 = system: SK-MEL-5
SK-OV-3 = system: SK-OV-3
SNB-75 = system: SNB-75
SR = system: SR
T47D = system: T47D
UACC-257 = system: UACC-257
UO-31 = system: UO-31
HL-60 = system: HL-60
TK-10 = system: TK-10

For `Cc1cc2c(C(C)C)c(O)c(O)c(C=O)c2c(O)c1-c1c(C)cc2c(C(C)C)c(O)c(O)c(C=O)c2c1O`, the GI50 (A498) was 4.47 µM (inactive), the GI50 (A549) was 5.69 µM (inactive) and the GI50 (ACHN) was 5.51 µM (inactive). For the same molecule, the GI50 (CAKI-1) was 3.39 µM (inactive), the GI50 (COLO 205) was 4.35 µM (inactive) and the GI50 (EKVX) was 1.32 µM (inactive). The GI50 (HCT-15) was 5.18 µM, the GI50 (K562) was 2.16 µM (inactive) and the GI50 (KM12) was 2.07 µM (inactive). The GI50 (MDA-N) was 87.7 µM (inactive), the GI50 (MOLT-4) was 2.24 µM (inactive) and the GI50 (OVCAR-3) was 2.3 µM (inactive). The GI50 (PC-3) was 5.04 µM (inactive), the GI50 (RPMI-8226) was 4.38 µM (inactive) and the GI50 (SF-295) was 2.81 µM (inactive). The GI50 (SN12C) was 6.14 µM (inactive), the GI50 (SNB-19) was 7.24 µM (inactive) and the GI50 (SW-620) was 7.06 µM (inactive). For the same molecule, the GI50 (U-251) was 3.52 µM (inactive) and the GI50 (UACC-62) was 4.7 µM (inactive).

`C=[N+](CNC(=O)CNC(=O)C(Cc1ccccc1)NC(=O)OC(C)(C)C)C(=O)CNC(=O)C(Cc1ccccc1)NC(=O)OC(C)(C)C` (stereo not drawn) was tested, and the GI50 (786-0) was > 100 µM (inactive), the GI50 (A498) was > 100 µM (inactive) and the GI50 (A549) was > 100 µM (inactive). For the same molecule, the GI50 (ACHN) was > 100 µM (inactive), the GI50 (CAKI-1) was > 100 µM (inactive) and the GI50 (CCRF-CEM) was > 100 µM (inactive). For the same molecule, the GI50 (COLO 205) was > 100 µM (inactive), the GI50 (DU-145) was > 100 µM (inactive) and the GI50 (EKVX) was > 100 µM (inactive). The GI50 (HCC 2998) was > 100 µM (inactive), the GI50 (HCT-116) was > 100 µM (inactive) and the GI50 (HCT-15) was > 100 µM. The GI50 (HOP-62) was > 100 µM (inactive), the GI50 (HOP-92) was > 100 µM (inactive) and the GI50 (HT-29) was > 100 µM (inactive). For the same molecule, the GI50 (Hs-578T) was > 100 µM (inactive), the GI50 (IGROV-1) was > 100 µM (inactive) and the GI50 (K562) was > 100 µM (inactive). For the same molecule, the GI50 (KM12) was > 100 µM (inactive), the GI50 (LOX IMVI) was > 100 µM (inactive) and the GI50 (M14) was > 100 µM (inactive). For the same molecule, the GI50 (MCF7) was > 100 µM (inactive), the GI50 (MDA-MB-231) was > 100 µM (inactive) and the GI50 (MDA-MB-435) was > 100 µM (inactive). For the same molecule, the GI50 (MDA-N) was > 100 µM (inactive), the GI50 (MOLT-4) was > 100 µM (inactive) and the GI50 (Malme-3M) was > 100 µM (inactive). The GI50 (NCI-H226) was > 100 µM (inactive), the GI50 (NCI-H23) was > 100 µM (inactive) and the GI50 (NCI-H460) was > 100 µM (inactive). For the same molecule, the GI50 (NCI-H522) was > 100 µM (inactive), the GI50 (NCI/ADR-RES) was > 100 µM (inactive) and the GI50 (OVCAR-3) was > 100 µM (inactive). The GI50 (OVCAR-4) was > 100 µM (inactive), the GI50 (OVCAR-5) was > 100 µM (inactive) and the GI50 (OVCAR-8) was > 100 µM (inactive). The GI50 (PC-3) was > 100 µM (inactive), the GI50 (RPMI-8226) was > 100 µM (inactive) and the GI50 (RXF 393) was > 100 µM (inactive). For the same molecule, the GI50 (SF-268) was > 100 µM (inactive), the GI50 (SF-295) was > 100 µM (inactive) and the GI50 (SF-539) was > 100 µM (inactive). For the same molecule, the GI50 (SK-MEL-28) was > 100 µM (inactive), the GI50 (SK-MEL-2) was > 100 µM (inactive) and the GI50 (SK-MEL-5) was > 100 µM (inactive). The GI50 (SK-OV-3) was > 100 µM (inactive), the GI50 (SN12C) was > 100 µM (inactive) and the GI50 (SNB-19) was > 100 µM (inactive). The GI50 (SNB-75) was > 100 µM (inactive), the GI50 (SR) was > 100 µM (inactive) and the GI50 (SW-620) was > 100 µM (inactive). For the same molecule, the GI50 (T47D) was > 100 µM (inactive), the GI50 (UACC-257) was > 100 µM (inactive) and the GI50 (UACC-62) was > 100 µM (inactive). For the same molecule, the GI50 (UO-31) was > 100 µM (inactive).

With `O=c1ss/c(=N\c2ccccc2)n1-c1ccccc1` the GI50 (786-0) was 18.3 µM (inactive), the GI50 (A498) was > 100 µM (inactive) and the GI50 (A549) was 35.4 µM (inactive). For the same molecule, the GI50 (ACHN) was 17.1 µM (inactive), the GI50 (CCRF-CEM) was 4.14 µM (inactive) and the GI50 (COLO 205) was 26.1 µM (inactive). The GI50 (DU-145) was 16.9 µM (inactive), the GI50 (EKVX) was 33.7 µM (inactive) and the GI50 (HCC 2998) was 36.8 µM (inactive). The GI50 (HCT-15) was 17.8 µM, the GI50 (HL-60) was 31.1 µM (inactive) and the GI50 (HOP-62) was 20.6 µM (inactive). For the same molecule, the GI50 (HOP-92) was 21.6 µM (inactive), the GI50 (HT-29) was 38.5 µM (inactive) and the GI50 (Hs-578T) was 32.4 µM (inactive). For the same molecule, the GI50 (K562) was 21.8 µM (inactive), the GI50 (KM12) was 30.8 µM (inactive) and the GI50 (LOX IMVI) was 19.3 µM (inactive). The GI50 (M14) was 19 µM (inactive), the GI50 (MCF7) was 19.5 µM (inactive) and the GI50 (MDA-MB-231) was 25.9 µM (inactive). The GI50 (MDA-MB-435) was 31.9 µM (inactive), the GI50 (MDA-N) was 34.5 µM (inactive) and the GI50 (MOLT-4) was 28.7 µM (inactive). For the same molecule, the GI50 (Malme-3M) was > 100 µM (inactive), the GI50 (NCI-H226) was 20.1 µM (inactive) and the GI50 (NCI-H23) was 21.7 µM (inactive). For the same molecule, the GI50 (NCI-H460) was 81.7 µM (inactive), the GI50 (NCI/ADR-RES) was 28.3 µM (inactive) and the GI50 (OVCAR-3) was 22.3 µM (inactive). The GI50 (OVCAR-4) was 17 µM (inactive), the GI50 (OVCAR-5) was 40.2 µM (inactive) and the GI50 (OVCAR-8) was 16.8 µM (inactive). For the same molecule, the GI50 (PC-3) was 19.5 µM (inactive), the GI50 (RPMI-8226) was 21.4 µM (inactive) and the GI50 (SF-268) was 18.5 µM (inactive). The GI50 (SF-295) was > 100 µM (inactive), the GI50 (SF-539) was 35.9 µM (inactive) and the GI50 (SK-MEL-28) was 36.9 µM (inactive). The GI50 (SK-MEL-2) was 23.2 µM (inactive), the GI50 (SK-MEL-5) was 32.4 µM (inactive) and the GI50 (SK-OV-3) was > 100 µM (inactive). For the same molecule, the GI50 (SN12C) was 20.4 µM (inactive), the GI50 (SNB-19) was 62.5 µM (inactive) and the GI50 (SNB-75) was 21.9 µM (inactive). The GI50 (SR) was 17.3 µM (inactive), the GI50 (SW-620) was 24.4 µM (inactive) and the GI50 (T47D) was 16.3 µM (inactive). The GI50 (TK-10) was 50.6 µM (inactive), the GI50 (U-251) was 23.2 µM (inactive) and the GI50 (UACC-257) was 20.4 µM (inactive). The GI50 (UACC-62) was 31.1 µM (inactive) and the GI50 (UO-31) was 17.5 µM (inactive).
